Test results reported in ChEMBL document CHEMBL1156541 (Bioorg Med Chem, 2008).

tested on: not listed separately; test: Octanol-water partition coefficient, log P of the compound; assay type: physicochemical

Row | SMILES | logP
1 | CCCCN1C(=O)[C@H]2CNC(c3cc(S(=O)(=O)N4CCN(CC)CC4)ccc3OCC)=NN2C1=O | 1.25
2 | CCCCN1C(=O)[C@H]2CC=C(c3cc(S(=O)(=O)N4CCN(CC)CC4)ccc3OCC)CN2C1=O | 2.77
3 | CCCc1nn(C)c2c(=O)[nH]c(-c3cc(S(=O)(=O)N4CCN(C)CC4)ccc3OCC)nc12 | 2.51
4 | CCCCN1C(=O)[C@H]2C(=O)NC(c3cc(S(=O)(=O)N4CCN(CC)CC4)ccc3OCC)=NN2C1=O | 0.574
5 | CN1CC(=O)N2[C@H](c3ccc4c(c3)OCO4)c3[nH]c4ccccc4c3C[C@@H]2C1=O | 2.36
6 | CCCCN1C(=O)C2=C(N=C(c3cc(S(=O)(=O)N4CCN(C)CC4)ccc3OCC)NC2)C1=O | 0.984
7 | CCOc1ccc(S(=O)(=O)N2CCN(CC)CC2)cc1C1=CC[C@@H]2C(=O)N(C)CC(=O)N2C1 | 0.792
8 | CCOc1ccc(S(=O)(=O)N2CCN(C)CC2)cc1C1=CC[C@@H]2C(=O)N(C)CC(=O)N2C1 | 0.416
9 | CCCCN1C(=O)c2nc(-c3cc(S(=O)(=O)N4CCN(C)CC4)ccc3OCC)[nH]c(=O)c2C1=O | 1.86
10 | CCCc1nc(C)c2c(=O)[nH]c(-c3cc(S(=O)(=O)N4CCN(CC)CC4)ccc3OCC)nn12 | 2.56
11 | CCCCN1C(=O)[C@H]2CC=C(c3cc(S(=O)(=O)N4CCN(C)CC4)ccc3OCC)CN2C1=O | 2.4

target: cGMP-specific 3',5'-cyclic phosphodiesterase (Homo sapiens, UniProt O76074); test: Inhibition of PDE5

Row | SMILES | IC50 [nM]
12 | CCCCN1C(=O)[C@H]2Cc3c([nH]c4ccccc34)[C@H](c3ccc(C#N)cc3)N2C1=O (relative stereo) | 302
13 | CCCc1nn(C)c2c(=O)[nH]c(-c3ccccc3)nc12 | 4470
14 | CCCCN1C(=O)[C@H]2Cc3c([nH]c4ccccc34)[C@@H](c3cccc(Cl)c3)N2C1=O (relative stereo) | 50.1
15 | CCOc1ccc([C@H]2c3[nH]c4ccccc4c3C[C@@H]3C(=O)N(Cc4cccnc4)C(=O)N23)cc1 (relative stereo) | 20
16 | CCCCN1C(=O)[C@H]2Cc3c([nH]c4ccccc34)[C@H](c3cccc(Cl)c3)N2C1=O (relative stereo) | 50.1
17 | CCCCN1C(=O)[C@H]2Cc3c([nH]c4ccccc34)[C@@H](c3ccc(C#N)cc3)N2C1=O (relative stereo) | 912
18 | CCCCN1C(=O)[C@H]2Cc3c([nH]c4ccccc34)[C@@H](c3ccccc3)N2C1=O (relative stereo) | 60.3
19 | CCOc1ccc([C@@H]2c3[nH]c4ccccc4c3C[C@@H]3C(=O)N(Cc4ccccc4)C(=O)N23)cc1 (relative stereo) | 3.98
20 | CCOc1ccc([C@H]2c3[nH]c4ccccc4c3C[C@@H]3C(=O)N(Cc4ccccc4)C(=O)N23)cc1 (relative stereo) | 18.2
21 | CCOc1ccc([C@H]2c3[nH]c4ccccc4c3C[C@@H]3C(=O)N(CCc4ccccn4)C(=O)N23)cc1 (relative stereo) | 6.03
22 | CCCCN1C(=O)[C@H]2Cc3c([nH]c4ccccc34)[C@@H](c3ccncc3)N2C1=O (relative stereo) | 302
23 | CCCCN1C(=O)[C@H]2Cc3c([nH]c4ccccc34)[C@@H](c3ccsc3)N2C1=O (relative stereo) | 30.2
24 | CCCCN1C(=O)[C@H]2Cc3c([nH]c4ccccc34)[C@@H](c3ccc(Cl)cc3)N2C1=O (relative stereo) | 50.1
25 | CCCCN1C(=O)[C@H]2Cc3c([nH]c4ccccc34)[C@@H](c3cccnc3)N2C1=O (relative stereo) | 91.2
26 | CCOc1ccc([C@H]2c3[nH]c4ccccc4c3C[C@@H]3C(=O)N(CCN(C)C)C(=O)N23)cc1 (relative stereo) | 30.2
27 | CCCc1nn(C)c2c(=O)[nH]c(-c3ccccc3O)nc12 | 1000

Row | SMILES | IC50 [nM]
28 | CCOc1ccc([C@H]2c3[nH]c4ccccc4c3C[C@@H]3C(=O)N(CC)C(=O)N23)cc1 (relative stereo) | 7.08
29 | CCOc1ccc([C@@H]2c3[nH]c4ccccc4c3C[C@@H]3C(=O)N(C)C(=O)N23)cc1 (relative stereo) | 10
30 | CCCCN1C(=O)[C@H]2Cc3c([nH]c4ccccc34)[C@H](c3ccccc3OC)N2C1=O (relative stereo) | 1000
31 | CCOc1ccc([C@H]2c3[nH]c4ccccc4c3C[C@@H]3C(=O)NC(=O)N23)cc1 (relative stereo) | 20
32 | CCOc1ccc([C@@H]2c3[nH]c4ccccc4c3C[C@@H]3C(=O)N(CC)C(=O)N23)cc1 (relative stereo) | 10
33 | CCOc1ccc([C@H]2c3[nH]c4ccccc4c3C[C@@H]3C(=O)N(CCn4cccc4)C(=O)N23)cc1 (relative stereo) | 100
34 | CCOc1ccc([C@@H]2c3[nH]c4ccccc4c3C[C@@H]3C(=O)N(C4CCCCC4)C(=O)N23)cc1 | 7.08
35 | CCCCN1C(=O)[C@H]2Cc3c(n(C)c4ccccc34)[C@H](c3ccc(OC)cc3)N2C1=O (relative stereo) | 2000
36 | CCCc1nn(C)c2c(=O)[nH]c(-c3cc(S(=O)(=O)N4CCN(CCO)CC4)ccc3OCC)nc12 [LODENAFIL] | 1.91
37 | CCOc1ccc([C@H]2c3[nH]c4ccccc4c3C[C@@H]3C(=O)N(C4CCCCC4)C(=O)N23)cc1 (relative stereo) | 3.02
38 | CCCCN1C(=O)[C@H]2Cc3c([nH]c4ccccc34)[C@@H](c3ccoc3)N2C1=O (relative stereo) | 100
39 | CCCCN1C(=O)[C@H]2Cc3c([nH]c4ccccc34)[C@H](c3ccc(Cl)cc3)N2C1=O (relative stereo) | 20
40 | CCCCN1C(=O)[C@H]2Cc3c([nH]c4ccccc34)[C@H](c3ccccc3)N2C1=O (relative stereo) | 20
41 | CCCc1nn(C)c2c(=O)[nH]c(-c3cc(S(=O)(=O)N4CCC(C(N)=O)CC4)ccc3OCC)nc12 | 2.09
42 | CCCc1n[nH]c2c(=O)[nH]c(-c3ccccc3)nc12 | 81.3

target: not listed separately; test: Inhibition of PDE5

Row | SMILES | pIC50
43 | CCCc1nn(C)c2c(=O)[nH]c(-c3ccccc3OCC3CC3)nc12 | 6.02
44 | CCCc1nn(C)c2c(=O)[nH]c(-c3cc(S(=O)(=O)N4CCNCC4)ccc3OCC)nc12 | 8.24
45 | CCCc1nn(C)c2c(=O)[nH]c(-c3ccccc3[N+](=O)[O-])nc12 | 5.36
